Earlier results on 1 compound are cited in patent US12582389B2, “Urine preservative composition, device for sampling urine and method for manufacturing a urine sampling device” (VACUTEST KIMA S.R.L., priority 2020, dated 2026).

The conditions of data set [1]: urine samples with boric acid.
For another data set, the system named is Klebsiella sp. Particulars: boric acid 1.5-2% W/V with respect to the sample volume.

For the compound `OB(O)O` [boric acid], the “pH of urine samples” value in data set [1] is around 5. Also, the “effect on the most sensitive Gram-negative bacterial strains” value with Klebsiella sp. is reported as “death”.
